Assay [1] addresses T1, Human Calpain 9/NS1 (Homo sapiens, UniProt O14815).
T1 sequence (O14815 1-690): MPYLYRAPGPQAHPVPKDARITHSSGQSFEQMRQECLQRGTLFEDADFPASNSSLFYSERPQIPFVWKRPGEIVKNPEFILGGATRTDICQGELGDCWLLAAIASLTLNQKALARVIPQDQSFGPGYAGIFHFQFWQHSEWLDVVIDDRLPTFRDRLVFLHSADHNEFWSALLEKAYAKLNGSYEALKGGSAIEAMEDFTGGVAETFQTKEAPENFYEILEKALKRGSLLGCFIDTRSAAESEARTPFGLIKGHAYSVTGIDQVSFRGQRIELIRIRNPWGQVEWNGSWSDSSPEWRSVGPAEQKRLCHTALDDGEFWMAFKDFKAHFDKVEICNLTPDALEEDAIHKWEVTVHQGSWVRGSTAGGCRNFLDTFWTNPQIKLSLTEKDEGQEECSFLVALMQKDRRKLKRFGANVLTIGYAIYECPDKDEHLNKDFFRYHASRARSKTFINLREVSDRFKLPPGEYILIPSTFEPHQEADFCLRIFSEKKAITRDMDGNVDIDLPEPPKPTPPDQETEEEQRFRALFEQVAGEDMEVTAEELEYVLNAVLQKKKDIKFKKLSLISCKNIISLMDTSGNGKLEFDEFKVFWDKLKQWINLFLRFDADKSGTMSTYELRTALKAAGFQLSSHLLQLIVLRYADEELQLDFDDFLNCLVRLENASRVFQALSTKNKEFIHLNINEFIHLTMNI
T1 sequence (P04632 1-268 partner): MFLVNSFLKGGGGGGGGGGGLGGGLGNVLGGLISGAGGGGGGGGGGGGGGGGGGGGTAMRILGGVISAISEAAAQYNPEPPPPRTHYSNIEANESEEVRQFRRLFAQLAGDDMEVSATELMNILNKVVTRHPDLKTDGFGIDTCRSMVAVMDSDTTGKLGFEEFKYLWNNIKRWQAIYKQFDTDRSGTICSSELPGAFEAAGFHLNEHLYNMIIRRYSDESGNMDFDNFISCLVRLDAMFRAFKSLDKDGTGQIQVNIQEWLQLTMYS
Description: Calpain inhibition continuous fluorescence (FRET) assay, Human Calpain 9/NS1. The format is biochemical. To be noted: read-out: Human Calpain 9/NS1 IC50. The gist of the method:
(§1)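 Inhibitors were preincubated with calpain in 50 mM Tris pH 7.5, 100 mM NaCl, 1 mM DTT at 25C. Reactions were started with 5-FAM/QXL 520 FRET peptide substrate plus CaCl2 and read at 490/520 nm for 10 min. IC50s came from 4-parameter fits of slope rates (1-5 min).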

The target of assay [2] is T2, Human Calpain 2/NS1 (Homo sapiens, UniProt P17655).
T2 sequence (P17655 1-700): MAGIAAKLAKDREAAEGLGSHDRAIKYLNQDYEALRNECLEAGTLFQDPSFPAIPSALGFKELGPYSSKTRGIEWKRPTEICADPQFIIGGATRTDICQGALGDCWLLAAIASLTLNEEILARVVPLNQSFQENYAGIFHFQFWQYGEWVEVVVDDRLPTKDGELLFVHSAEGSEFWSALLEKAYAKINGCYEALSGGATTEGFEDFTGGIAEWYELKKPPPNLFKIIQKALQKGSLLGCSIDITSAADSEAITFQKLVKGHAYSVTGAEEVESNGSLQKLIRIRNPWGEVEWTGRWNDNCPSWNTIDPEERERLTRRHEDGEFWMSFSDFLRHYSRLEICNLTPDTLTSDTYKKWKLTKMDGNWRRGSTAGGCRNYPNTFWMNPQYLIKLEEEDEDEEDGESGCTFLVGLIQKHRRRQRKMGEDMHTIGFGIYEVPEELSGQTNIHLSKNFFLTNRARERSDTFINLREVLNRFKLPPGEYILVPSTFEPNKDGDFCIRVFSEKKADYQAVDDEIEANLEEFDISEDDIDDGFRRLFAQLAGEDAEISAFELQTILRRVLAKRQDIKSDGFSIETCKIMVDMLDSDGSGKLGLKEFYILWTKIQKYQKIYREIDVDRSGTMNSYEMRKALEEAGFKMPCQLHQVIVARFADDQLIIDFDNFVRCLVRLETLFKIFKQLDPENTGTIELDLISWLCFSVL
T2 sequence (P04632 1-268 partner): T1 sequence (P04632 1-268 partner)
Kind of assay: Calpain inhibition continuous fluorescence (FRET) assay, Human Calpain 2/NS1. The format is biochemical. Conditions: read-out: Human Calpain 2/NS1 IC50. The gist of the method:
as §1

The test system of assay [3] is Calpain activity in SH-SY5Y cells (SBDP-150). Kind of assay: SH-SY5Y Spectrin western blot assay (SBDP-150 breakdown product, A23187-induced). In kind it is cell-based. Conditions: SH-SY5Y cells, read-out: SH-SY5Y Spectrin IC50.
Assay [4] deals with T3, Human Calpain 1/NS1 (Homo sapiens, UniProt P07384).
T3 sequence (P07384 1-714): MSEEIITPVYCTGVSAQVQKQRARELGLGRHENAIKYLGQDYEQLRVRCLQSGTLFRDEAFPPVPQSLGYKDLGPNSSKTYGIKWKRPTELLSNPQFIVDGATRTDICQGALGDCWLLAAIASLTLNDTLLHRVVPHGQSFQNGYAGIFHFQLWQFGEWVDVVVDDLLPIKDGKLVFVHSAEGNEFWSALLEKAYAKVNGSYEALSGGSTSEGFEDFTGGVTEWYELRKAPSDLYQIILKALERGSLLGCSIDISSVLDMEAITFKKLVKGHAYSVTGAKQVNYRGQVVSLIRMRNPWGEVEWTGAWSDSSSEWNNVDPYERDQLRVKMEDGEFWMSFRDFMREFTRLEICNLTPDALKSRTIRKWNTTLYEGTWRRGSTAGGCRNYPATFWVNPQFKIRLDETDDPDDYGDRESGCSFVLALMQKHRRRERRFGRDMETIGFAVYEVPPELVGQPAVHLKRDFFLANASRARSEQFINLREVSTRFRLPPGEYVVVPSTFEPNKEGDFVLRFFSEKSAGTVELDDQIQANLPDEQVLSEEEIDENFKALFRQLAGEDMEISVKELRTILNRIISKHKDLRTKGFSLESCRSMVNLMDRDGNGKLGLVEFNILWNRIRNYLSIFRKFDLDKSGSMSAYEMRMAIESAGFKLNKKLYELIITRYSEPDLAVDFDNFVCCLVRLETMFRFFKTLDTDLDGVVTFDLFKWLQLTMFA
T3 sequence (P04632 1-268 partner): T1 sequence (P04632 1-268 partner)
Kind of assay: Calpain inhibition continuous fluorescence (FRET) assay, Human Calpain 1/NS1. To be noted: read-out: Human Calpain 1/NS1 IC50. In kind it is biochemical. The method, boiled down:
as §1

Where [5] appears, read: Homo sapiens, A23187-induced SBDP-150, western blot.
[6] abbreviates: Homo sapiens, Column D, A23187-induced SBDP-150.

Read-outs that look alike come from different tables or passages of the source. Where only a bound is given, the exact number is not on record here.

Turning to `O=C(NC1CC1)C(=O)C(Cc1ccccc1)NC(=O)c1nsnc1-c1ccccc1` (stereo not shown) [Compound 462, N-(4-(cyclopropylamino)-3,4-dioxo-1-phenylbutan-2-yl)-4-phenyl-1,2,5-thiadiazole-3-carboxamide], the IC50 in assay [1] is less than 3 µM; in assay [2], less than 3 µM; in assay [3] (setting [5]) it was 10 to 25 µM; in assay [4], less than 3 µM.

On to `NC(=O)C(=O)C(Cc1ccccc1)NC(=O)c1cn(C(F)F)nc1-c1cnc2ccccc2c1` (stereo not shown) [Compound 610, N-(4-amino-3,4-dioxo-1-phenylbutan-2-yl)-1-(difluoromethyl)-3-(quinolin-3-yl)-1H-pyrazole-4-carboxamide], for which the IC50 was less than 3 µM in assay [1], less than 3 µM in assay [2], less than 10 µM in assay [3] (setting [5]) and less than 3 µM in assay [4].

Turning to `Cc1cccnc1-n1nc(C(=O)NC(Cc2ccccc2)C(=O)C(N)=O)cc1C` (stereo not shown) [Compound 346, N-(4-amino-3,4-dioxo-1-phenylbutan-2-yl)-5-methyl-1-(3-methylpyridin-2-yl)-1H-pyrazole-3-carboxamide], the IC50 in assay [1] was 3 to 10 µM; in assay [2], 3 to 10 µM; in assay [3] (setting [5]) it was greater than 25 µM; in assay [4], greater than 10 µM.

For “(S)—N-(4-(((1H-benzo[d]imidazol-5-yl)methyl)amino)-3,4-dioxo-1-phenyl butan-2-yl)-3-methyl-5-phenylisoxazole-4-carboxamide [Compound 493]”, the IC50 in assay [1] is 3 to 10 µM; in assay [2], less than 3 µM; in assay [3] (A23187-induced SBDP-150, western blot), greater than 25 µM; in assay [4] it was less than 3 µM.

For the compound `Cc1nc(-c2cccc3c2OCO3)c(C(=O)NC(Cc2ccccc2)C(=O)C(N)=O)o1` (stereo not shown) [Compound 609, N-(4-amino-3,4-dioxo-1-phenylbutan-2-yl)-4-(benzo[d][1,3]dioxol-4-yl)-2-methyloxazole-5-c arboxamide], the IC50 in assay [1] was less than 3 µM; in assay [2] it was less than 3 µM; in assay [3] (setting [5]) it was less than 10 µM; in assay [4], less than 3 µM.

Regarding `Cc1cccc2sc(-n3nc(C(=O)N[C@@H](Cc4ccccc4)C(=O)C(N)=O)cc3C)nc12` [Compound 299, (S)—N-(4-amino-3,4-dioxo-1-phenylbutan-2-yl)-5-methyl-1-(4-methylbenzo[d]thiazol-2-yl)-1H-pyrazole-3-carboxamide], the IC50 was less than 3 µM in assay [1] (Column C), less than 3 µM in assay [2] (Column B), 10 to 25 µM in assay [3] (setting [6]) and less than 3 µM in assay [4] (Column A).

Consider `NC(=O)C(=O)C(Cc1ccccc1)NC(=O)c1cn(C(F)F)nc1-c1cc2ccccc2cn1` (stereo not shown) [Compound 608, N-(4-amino-3,4-dioxo-1-phenylbutan-2-yl)-1-(difluoromethyl)-3-(isoquinolin-3-yl)-1H-pyrazole-4-carboxamide], for which the IC50 in assay [1] was less than 3 µM; in assay [2] it was less than 3 µM; in assay [3] (setting [5]), greater than 25 µM; in assay [4] it was less than 3 µM.

Take `Cc1cc(C(=O)NC(Cc2ccccc2)C(=O)C(N)=O)n(-c2ncccc2C)n1` (stereo not shown) [Compound 345, N-(4-amino-3,4-dioxo-1-phenylbutan-2-yl)-3-methyl-1-(3-methylpyridin-2-yl)-1H-pyrazole-5-carboxamide]: the IC50 was greater than 10 µM in assay [1], greater than 10 µM in assay [2], greater than 25 µM in assay [3] (setting [5]) and greater than 10 µM in assay [4].

Consider `Cc1cc(C(=O)N[C@@H](Cc2ccccc2)C(=O)C(N)=O)n(-c2cccc(CNC(=O)c3ccccc3)c2)n1` [Compound 141, (S)—N-(4-amino-3,4-dioxo-1-phenylbutan-2-yl)-1-(3-(benzamidomethyl)phenyl)-3-methyl-1H-pyrazole-5-carboxamide], for which the IC50 in assay [1] (Column C) is less than 3 µM; in assay [2] (Column B), less than 3 µM; in assay [3] (setting [6]) it was 10 to 25 µM; in assay [4] (Column A) it was less than 3 µM.

Regarding `Cc1cc(C(=O)N[C@@H](Cc2ccccc2)C(=O)C(N)=O)n(-c2ccc(CNC(=O)CCc3ccccc3)cc2)n1` [Compound 155, (S)—N-(4-amino-3,4-dioxo-1-phenylbutan-2-yl)-3-methyl-1-(4-((3-phenylpropanamido)methyl)phenyl)-1H-pyrazole-5-carboxamide], the IC50 was less than 3 µM in assay [1] (Column C), less than 3 µM in assay [2] (Column B), greater than 25 µM in assay [3] (setting [6]) and less than 3 µM in assay [4] (Column A).

As for `Cn1cc(C(=O)NC(Cc2ccccc2)C(=O)C(N)=O)c(Cc2ccccc2)n1` (stereo not shown) [Compound 483, N-(4-amino-3,4-dioxo-1-phenylbutan-2-yl)-3-benzyl-1-methyl-1H-pyrazole-4-carboxamide], the IC50 was less than 3 µM in assay [1], 3 to 10 µM in assay [2], greater than 25 µM in assay [3] (setting [5]) and greater than 10 µM in assay [4].

As to `NC(=O)C(=O)C(Cc1ccccc1)NC(=O)c1cn(-c2cccc(F)c2)nc1-c1ccccc1` (stereo not shown) [Compound 528, N-(4-amino-3,4-dioxo-1-phenylbutan-2-yl)-1-(3-fluorophenyl)-3-phenyl-1H-pyrazole-4-carb oxamide], the IC50 in assay [1] was less than 3 µM; in assay [2], less than 3 µM; in assay [3] (setting [5]), greater than 25 µM; in assay [4], less than 3 µM.

As for `Cn1cc(C(=O)NC(Cc2ccccc2)C(=O)C(N)=O)c(-c2cccc(C(F)(F)F)c2F)n1` (stereo not shown) [Compound 516, N-(4-amino-3,4-dioxo-1-phenylbutan-2-yl)-3-(2-fluoro-3-(trifluoromethyl)phenyl)-1-methyl-1H-pyrazole-4-carboxamide], the IC50 in assay [1] was less than 3 µM; in assay [2], less than 3 µM; in assay [3] (setting [5]), greater than 25 µM; in assay [4], less than 3 µM.

These data come from patent US11339130B1 (Blade Therapeutics, Inc., priority 2016, dated 2022).
